The results in this text go back to article PMC6389962 (Nature Communications, 2019).

The target in assay [1] is T1, mouse GLP-1 receptor (Mus musculus, UniProt O35659).
T1 sequence (O35659 22-463): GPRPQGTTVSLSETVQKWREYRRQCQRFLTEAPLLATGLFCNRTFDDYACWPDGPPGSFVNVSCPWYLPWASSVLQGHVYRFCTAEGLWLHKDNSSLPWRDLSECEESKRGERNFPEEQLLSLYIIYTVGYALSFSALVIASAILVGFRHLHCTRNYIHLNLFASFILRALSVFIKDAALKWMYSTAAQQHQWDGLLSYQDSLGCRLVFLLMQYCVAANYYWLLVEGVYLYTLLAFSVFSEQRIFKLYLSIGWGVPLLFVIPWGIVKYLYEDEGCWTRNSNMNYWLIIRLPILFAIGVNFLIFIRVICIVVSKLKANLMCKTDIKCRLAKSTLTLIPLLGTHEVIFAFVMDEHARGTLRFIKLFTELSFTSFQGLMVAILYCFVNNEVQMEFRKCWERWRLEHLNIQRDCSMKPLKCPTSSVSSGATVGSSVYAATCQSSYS
The conditions noted are these: for Potency (%), percentage of potency compare to GLP-1-G^2: cAMP production, from EC50. In general terms: cAMP levels reflect the balance of adenylyl cyclase and phosphodiesterase activity.

The target in assay [2] is T1, mouse GLP-1 receptor. Briefly: cell-based. The note with it: for Emax: 14: experiment 1.
[3] abbreviates: read-out: Top (best-fit value), variable slope four-parameter fit, unconstrained.
Where [4] appears, read: read-out: Top (best-fit value), fit with BOTTOM = 0%.

Molecules are shown by their SMILES. Where two headings read alike, the source gives them in different places. Starred links: 1 amine or outer side, 2 acyl side, 3 side chain; linkers in the order of their positions; H or OH if unused. Positions of bridges follow the written chain, without caps; N, C: chain ends. Residues, ends and D or L forms follow the SMILES beside them. Chains are numbered I, II in the order given. X1 = C[C@@H](CNC(=O)N[C@@H](C)CNC(=O)[*:2])NC(=O)NC[C@H](C)N[*:1]; X5 = C[C@@H](CNC(=O)N[C@@H](C)CNC(=O)[*:1])NC(=O)NC[C@H](C)N[*:2]

Turning to `CC[C@H](C)[C@H](NC(=O)[C@H](Cc1ccccc1)NC(=O)[C@H](CCC(=O)O)NC(=O)[C@H](CCCCN)NC(=O)[C@H](C)NC(=O)NC[C@H](C)NC(=O)NC[C@H](C)NC(=O)NC[C@H](C)NC(=O)[C@H](CC(C)C)NC(=O)[C@H](Cc1ccc(O)cc1)NC(=O)[C@H](CO)NC(=O)[C@H](CO)NC(=O)[C@@H](NC(=O)[C@H](CC(=O)O)NC(=O)[C@H](CO)NC(=O)[C@@H](NC(=O)[C@H](Cc1ccccc1)NC(=O)[C@@H](NC(=O)CNC(=O)[C@H](CCC(=O)O)NC(=O)CNC(=O)[C@@H](N)Cc1c[nH]cn1)[C@@H](C)O)[C@@H](C)O)C(C)C)C(=O)N[C@@H](C)C(=O)N[C@@H](Cc1c[nH]c2ccccc12)C(=O)N[C@@H](CC(C)C)C(=O)N[C@H](C(=O)N[C@@H](CCCCN)C(=O)NCC(=O)N[C@@H](CCCNC(=N)N)C(=O)NCC(N)=O)C(C)C` [compound 10, GG2[A^uA^uA^u]^15-18] (I: H-HGEGTFTSDVSSYL / II: AKEFIAWLVKGRG-NH2; linker I:C-II:N via X1), on mouse GLP-1 receptor [1], the “LogEC50 (best-fit value)” value was -6.91 and the “Potency (%), percentage of potency compare to GLP-1-G^2” value (“Potency (%), percentage” below) stood at 0.2%. Further, on mouse GLP-1 receptor [2], a half-maximal effect (EC50) was put at 123 nM. For the same compound, the Emax on mouse GLP-1 receptor [2] (setting [3]) worked out at 61.5%.
For `CC[C@H](C)[C@H](NC(=O)NC[C@H](C)NC(=O)NC[C@H](C)NC(=O)NC[C@H](C)NC(=O)[C@H](C)NC(=O)[C@H](CCC(N)=O)NC(=O)CNC(=O)[C@H](CCC(=O)O)NC(=O)[C@H](CC(C)C)NC(=O)[C@H](Cc1ccc(O)cc1)NC(=O)[C@H](CO)NC(=O)[C@H](CO)NC(=O)[C@@H](NC(=O)[C@H](CC(=O)O)NC(=O)[C@H](CO)NC(=O)[C@@H](NC(=O)[C@H](Cc1ccccc1)NC(=O)[C@@H](NC(=O)CNC(=O)[C@H](CCC(=O)O)NC(=O)CNC(=O)[C@@H](N)Cc1c[nH]cn1)[C@@H](C)O)[C@@H](C)O)C(C)C)C(=O)N[C@@H](C)C(=O)N[C@@H](Cc1c[nH]c2ccccc12)C(=O)N[C@@H](CC(C)C)C(=O)N[C@H](C(=O)N[C@@H](CCCCN)C(=O)NCC(=O)N[C@@H](CCCNC(=N)N)C(=O)NCC(N)=O)C(C)C` [compound 15, GG2[A^uA^uA^u]^19-22] (I: H-HGEGTFTSDVSSYLEGQA / II: IAWLVKGRG-NH2; linker I:C-II:N via X1), the EC50 (in general, the midpoint of the concentration-response curve) on mouse GLP-1 receptor [2] is above 10000 nM. For the same compound, the Emax at mouse GLP-1 receptor [2] (setting [4]) was around 538%; at mouse GLP-1 receptor [2] (setting [3]), 92.7%.
Turning to `CC[C@H](C)[C@H](NC(=O)[C@H](Cc1ccccc1)NC(=O)[C@H](CCC(=O)O)NC(=O)[C@H](CCCCN)NC(=O)[C@H](C)NC(=O)[C@H](C)NC(=O)NC[C@H](C)NC(=O)NC[C@H](C)NC(=O)NC[C@H](C)NC(=O)[C@H](Cc1ccc(O)cc1)NC(=O)[C@H](CO)NC(=O)[C@H](CO)NC(=O)[C@@H](NC(=O)[C@H](CC(=O)O)NC(=O)[C@H](CO)NC(=O)[C@@H](NC(=O)[C@H](Cc1ccccc1)NC(=O)[C@@H](NC(=O)CNC(=O)[C@H](CCC(=O)O)NC(=O)CNC(=O)[C@@H](N)Cc1c[nH]cn1)[C@@H](C)O)[C@@H](C)O)C(C)C)C(=O)N[C@@H](C)C(=O)N[C@@H](Cc1c[nH]c2ccccc12)C(=O)N[C@@H](CC(C)C)C(=O)N[C@H](C(=O)N[C@@H](CCCCN)C(=O)NCC(=O)N[C@@H](CCCNC(=N)N)C(=O)NCC(N)=O)C(C)C` [compound 8, GG2[A^uA^uA^u]^14-17] (I: AAKEFIAWLVKGRG-NH2 / II: H-HGEGTFTSDVSSY; linker I:N-II:C via X5), on mouse GLP-1 receptor [1], the “LogEC50 (best-fit value)” value is reported as -6.452 and the “Potency (%), percentage” value amounted to 0.07%. Also, at mouse GLP-1 receptor [2], the EC50 is 353 nM. In addition, on mouse GLP-1 receptor [2] (setting [3]), the Emax was found to be 73.4%.
As for `CC[C@H](C)[C@H](NC(=O)[C@H](Cc1ccccc1)NC(=O)[C@H](CCC(=O)O)NC(=O)[C@H](CCCCN)NC(=O)[C@H](C)NC(=O)[C@H](C)NC(=O)[C@H](CCC(N)=O)NC(=O)NC[C@H](C)NC(=O)NC[C@H](C)NC(=O)NC[C@H](C)NC(=O)[C@H](CO)NC(=O)[C@H](CO)NC(=O)[C@@H](NC(=O)[C@H](CC(=O)O)NC(=O)[C@H](CO)NC(=O)[C@@H](NC(=O)[C@H](Cc1ccccc1)NC(=O)[C@@H](NC(=O)CNC(=O)[C@H](CCC(=O)O)NC(=O)CNC(=O)[C@@H](N)Cc1c[nH]cn1)[C@@H](C)O)[C@@H](C)O)C(C)C)C(=O)N[C@@H](C)C(=O)N[C@@H](Cc1c[nH]c2ccccc12)C(=O)N[C@@H](CC(C)C)C(=O)N[C@H](C(=O)N[C@@H](CCCCN)C(=O)NCC(=O)N[C@@H](CCCNC(=N)N)C(=O)NCC(N)=O)C(C)C` [compound 7, GG2[A^uA^uA^u]^13-16] (I: QAAKEFIAWLVKGRG-NH2 / II: H-HGEGTFTSDVSS; linker I:N-II:C via X5), the EC50 at mouse GLP-1 receptor [2] was above 10000 nM. For the same compound, on mouse GLP-1 receptor [2] (setting [3]), the Emax is around 208%.
With `CC[C@H](C)[C@H](NC(=O)[C@H](Cc1ccccc1)NC(=O)[C@H](CCC(=O)O)NC(=O)NC[C@H](C)NC(=O)NC[C@H](C)NC(=O)NC[C@H](C)NC(=O)CNC(=O)[C@H](CCC(=O)O)NC(=O)[C@H](CC(C)C)NC(=O)[C@H](Cc1ccc(O)cc1)NC(=O)[C@H](CO)NC(=O)[C@H](CO)NC(=O)[C@@H](NC(=O)[C@H](CC(=O)O)NC(=O)[C@H](CO)NC(=O)[C@@H](NC(=O)[C@H](Cc1ccccc1)NC(=O)[C@@H](NC(=O)CNC(=O)[C@H](CCC(=O)O)NC(=O)CNC(=O)[C@@H](N)Cc1c[nH]cn1)[C@@H](C)O)[C@@H](C)O)C(C)C)C(=O)N[C@@H](C)C(=O)N[C@@H](Cc1c[nH]c2ccccc12)C(=O)N[C@@H](CC(C)C)C(=O)N[C@H](C(=O)N[C@@H](CCCCN)C(=O)NCC(=O)N[C@@H](CCCNC(=N)N)C(=O)NCC(N)=O)C(C)C` [compound 13, GG2[A^uA^uA^u]^17-20], the “LogEC50 (best-fit value)” value at mouse GLP-1 receptor [1] is reported as -5.795. The compound also showed an EC50 on mouse GLP-1 receptor [2] of 1600 nM. Besides, the Emax on mouse GLP-1 receptor [2] (setting [3]) was 57.7%.
With `CC[C@H](C)[C@H](NC(=O)[C@H](Cc1ccccc1)NC(=O)[C@H](CCC(=O)O)NC(=O)[C@H](CCCCN)NC(=O)[C@H](C)NC(=O)[C@H](C)NC(=O)[C@H](CCC(N)=O)NC(=O)CNC(=O)NC[C@H](C)NC(=O)NC[C@H](C)NC(=O)NC[C@H](C)NC(=O)[C@H](CO)NC(=O)[C@@H](NC(=O)[C@H](CC(=O)O)NC(=O)[C@H](CO)NC(=O)[C@@H](NC(=O)[C@H](Cc1ccccc1)NC(=O)[C@@H](NC(=O)CNC(=O)[C@H](CCC(=O)O)NC(=O)CNC(=O)[C@@H](N)Cc1c[nH]cn1)[C@@H](C)O)[C@@H](C)O)C(C)C)C(=O)N[C@@H](C)C(=O)N[C@@H](Cc1c[nH]c2ccccc12)C(=O)N[C@@H](CC(C)C)C(=O)N[C@H](C(=O)N[C@@H](CCCCN)C(=O)NCC(=O)N[C@@H](CCCNC(=N)N)C(=O)NCC(N)=O)C(C)C` [compound 6, GG2[A^uA^uA^u]^12-15], the “Potency (%), percentage” value at mouse GLP-1 receptor [1] is on record as below 0.01%. At mouse GLP-1 receptor [2], the EC50 was above 10000 nM. Moreover, the Emax on mouse GLP-1 receptor [2] (setting [4]) came to 6.08%; at mouse GLP-1 receptor [2] (setting [3]) it was 6.19%.
As for `CC[C@H](C)[C@H](NC(=O)[C@H](Cc1ccccc1)NC(=O)[C@H](CCC(=O)O)NC(=O)[C@H](CCCCN)NC(=O)[C@H](C)NC(=O)[C@H](C)NC(=O)[C@H](CCC(N)=O)NC(=O)CNC(=O)[C@H](CCC(=O)O)NC(=O)[C@H](CC(C)C)NC(=O)NC[C@H](C)NC(=O)NC[C@H](C)NC(=O)NC[C@H](C)NC(=O)[C@H](CC(=O)O)NC(=O)[C@H](CO)NC(=O)[C@@H](NC(=O)[C@H](Cc1ccccc1)NC(=O)[C@@H](NC(=O)CNC(=O)[C@H](CCC(=O)O)NC(=O)CNC(=O)[C@@H](N)Cc1c[nH]cn1)[C@@H](C)O)[C@@H](C)O)C(=O)N[C@@H](C)C(=O)N[C@@H](Cc1c[nH]c2ccccc12)C(=O)N[C@@H](CC(C)C)C(=O)N[C@H](C(=O)N[C@@H](CCCCN)C(=O)NCC(=O)N[C@@H](CCCNC(=N)N)C(=O)NCC(N)=O)C(C)C` [compound 3, GG2[A^uA^uA^u]^10-13], at mouse GLP-1 receptor [1], the “LogEC50 (best-fit value)” value is recorded as -6.187 and the “Potency (%), percentage” value came to 0.04%. It took 650 nM to reach a half-maximal effect on mouse GLP-1 receptor [2] (EC50). The Emax at mouse GLP-1 receptor [2] (setting [3]) stood at 91.6%.
For `CC(C)C[C@H](NC(=O)[C@H](Cc1ccc(O)cc1)NC(=O)[C@H](CO)NC(=O)[C@H](CO)NC(=O)[C@@H](NC(=O)[C@H](CC(=O)O)NC(=O)[C@H](CO)NC(=O)[C@@H](NC(=O)[C@H](Cc1ccccc1)NC(=O)[C@@H](NC(=O)CNC(=O)[C@H](CCC(=O)O)NC(=O)CNC(=O)[C@@H](N)Cc1c[nH]cn1)[C@@H](C)O)[C@@H](C)O)C(C)C)C(=O)N[C@@H](CCC(=O)O)C(=O)NCC(=O)N[C@@H](CCC(N)=O)C(=O)N[C@@H](C)C(=O)N[C@@H](C)C(=O)N[C@@H](CCCCN)C(=O)N[C@@H](CCC(=O)O)C(=O)N[C@@H](Cc1ccccc1)C(=O)N[C@@H](C)CNC(=O)N[C@@H](C)CNC(=O)N[C@@H](C)CNC(=O)N[C@H](C(=O)N[C@@H](CCCCN)C(=O)NCC(=O)N[C@@H](CCCNC(=N)N)C(=O)NCC(N)=O)C(C)C` [compound 17, GG2[A^uA^uA^u]^23-26], in that order: -5.406, 0.01%, 3930 nM and 98.7%.
